Calls of active or inactive are those of the source. The calls are words filed in the database; no cut-off is given here.
Key:
MDA-MB-361 [1] = assay: Antitumor activity against human MDA-MB-361 cells xenografted in female nude mouse model assessed as suppression in P-S6K at T389 level at 50 mg/kg, po qd administered as 5 days on/2 days off regimen for 4 cycles by immunoblot analysis; format: functional, organism-based; settings: time 28.0 day
HEK293 = assay: Antiproliferative activity against HEK293 cells assessed as reduction in polysomes at 0.5 micromol/L incubated for 16 hrs; format: functional, Homo sapiens; settings: dose 0.5 µmol/L
[2] = molecular target: Serine/threonine-protein kinase PAK 2 (Homo sapiens) (UniProt Q13177); assay: Inhibition of recombinant human full length GST-tagged PAK2 expressed in insect cells at 2 uM using Ser/Thr 20 as substrate measured after 1 hr by Z'-LYTE assay relative to control; settings: Insect cell
[3] = tested on: Receptor-type tyrosine-protein kinase FLT3 (Homo sapiens), P36888 [D835Y]; assay: Inhibition of recombinant human His-tagged FLT3 D835Y mutant (564-958 residues) expressed in insect cells at 2 uM using Tyr 02 as substrate measured after 1 hr by Z'-LYTE assay relative to control; settings: Insect cell
[4] = molecular target: Cyclin-dependent kinase 1/cyclin B1 (Homo sapiens) (UniProt P06493+P14635); assay: Inhibition of recombinant human full-length His-tagged CDK1/cyclin B expressed in insect cells at 2 uM using Ser/Thr 18 as substrate measured after 1 hr by Z'-LYTE assay relative to control; settings: Insect cell
MDA-MB-361 [5] = assay: Antiproliferative activity against human MDA-MB-361 cells assessed as cell growth inhibition incubated for 3 days by MTS assay; format: functional, cell-based; settings: MDA-MB-361, 72 h
[6] = molecular target: Insulin receptor-related protein (Homo sapiens) (UniProt P14616); assay: Inhibition of recombinant human GST-tagged INSRR (944-1297 residues) expressed in insect cells at 2 uM using Tyr 04 as substrate measured after 1 hr by Z'-LYTE assay relative to control; settings: Insect cell
[7] = molecular target: Tyrosine-protein kinase ABL1 (Homo sapiens) (UniProt P00519); assay: Inhibition of recombinant human full-length His-tagged ABL1 expressed in insect cells at 2 uM using Tyr 02 as substrate measured after 1 hr by Z'-LYTE assay relative to control; settings: Insect cell
[8] = molecular target: 3-phosphoinositide-dependent protein kinase 1 (Homo sapiens) (UniProt O15530); assay: Inhibition of recombinant human full length His-tagged PDK1 expressed in baculovirus expression system at 2 uM using Ser/Thr 06 as substrate measured after 1 hr by Z'-LYTE assay relative to control
[9] = molecular target: Casein kinase I isoform delta (Homo sapiens) (UniProt P48730); assay: Inhibition of recombinant human full-length GST-tagged CSNK1D expressed in insect cells at 2 uM using Ser/Thr 11 as substrate measured after 1 hr by Z'-LYTE assay relative to control; settings: Insect cell
[10] = tested on: Proto-oncogene tyrosine-protein kinase receptor Ret (Homo sapiens), P07949 [V804L]; assay: Inhibition of recombinant human GST-tagged RET V804L mutant (658-1114 residues) expressed in baculovirus expression system at 2 uM using Tyr 02 as substrate measured after 1 hr by Z'-LYTE assay relative to control
HCT-116 [11] = assay: Induction of apoptosis in human HCT-116 cells assessed as increase in G1 phase at 1 micromol/L incubated for 24 hrs by FACS analysis; format: functional, cell-based; settings: dose 1.0 µmol/L
HCT-116 [12] = assay: Antiproliferative activity against human HCT-116 cells assessed as cell growth inhibition incubated for 24 hrs by MTS assay; format: functional, cell-based; settings: HCT-116, 24 h
HT-29 = assay: Antitumor activity against human HT-29 cells xenografted in female nude mouse model assessed as reduction in P-AKT at T308 level at 50 mg/kg, iv administered once a week and measured at least 8 hrs by immunoblot analysis; format: functional, organism-based
HCT-116 [13] = assay: Induction of apoptosis in human HCT-116 cells assessed as increase in PARP cleavage at 0.3 to 3 micromol/L incubated for 48 hrs by Western blot analysis; format: functional, cell-based; settings: dose 0.3-3 µmol/L
786-0 = assay: Antiproliferative activity against human 786-0 cells assessed as cell growth inhibition incubated for 24 hrs by MTS assay; format: functional, cell-based; settings: 786-0, 24 h
mTORC2 (Homo sapiens) = mTORC2 (Homo sapiens) (UniProt P42345+Q6R327+Q9BVC4+Q9BPZ7); settings: PC3MM2, dose 0.1-1 µM, time 6.0 hrs
[14] = molecular target: Tyrosine-protein kinase ZAP-70 (Homo sapiens) (UniProt P43403); assay: Inhibition of recombinant human full length His-tagged ZAP70 expressed in baculovirus expression system at 2 uM using […] as substrate measured after 1 hr by Z'-LYTE assay relative to control
[15] = tested on: Tyrosine-protein kinase ABL1 (Homo sapiens), P00519 [E255K]; assay: Inhibition of recombinant human full-length His-tagged ABL1 E255K mutant expressed in insect cells at 2 uM using Tyr 02 as substrate measured after 1 hr by Z'-LYTE assay relative to control; settings: Insect cell
U-87 MG = assay: Antiproliferative activity against human U-87MG cells assessed as cell growth inhibition incubated for 24 hrs by MTS assay; format: functional, cell-based, U-87MG ATCC
[16] = molecular target: Dual specificity mitogen-activated protein kinase kinase 1 (Homo sapiens) (UniProt Q02750); assay: Inhibition of recombinant human full length His-tagged MAP2K1 expressed in baculovirus expression system at 2 uM using Ser/Thr 03 as substrate measured after 1 hr by Z'-LYTE assay relative to control
[17] = tested on: Mast/stem cell growth factor receptor Kit (Homo sapiens), P10721 [T670I]; assay: Inhibition of recombinant human His-tagged KIT T670I mutant (544-976 residues) expressed in insect cells at 2 uM using […] as substrate measured after 1 hr by Z'-LYTE assay relative to control
MDA-MB-361 [18] = assay: Antitumor activity against human MDA-MB-361 cells xenografted in female nude mouse model assessed as suppression in P-S6K at T389 level at 50 mg/kg, iv administered once a week and measured at least 8 hrs by immunoblot analysis; format: functional, organism-based
[19] = tested on: Tyrosine-protein kinase ABL1 (Homo sapiens), P00519 [G250E]; assay: Inhibition of recombinant human full-length His-tagged ABL1 G250E mutant expressed in insect cells at 2 uM using Tyr 02 as substrate measured after 1 hr by Z'-LYTE assay relative to control; settings: Insect cell
MDA-MB-361 [20] = assay: Induction of apoptosis in human MDA-MB-361 cells assessed as change in AKT phosphorylation at T308 level at 0.05 to 5 micromol/L incubated for 48 hrs by Western blot analysis; format: functional, cell-based; settings: dose 0.05-5 µmol/L
[21] = molecular target: Vascular endothelial growth factor receptor 1 (Homo sapiens) (UniProt P17948); assay: Inhibition of recombinant human GST-tagged FLT1 (781-1338 residues) expressed in insect cells at 2 uM using Tyr 04 as substrate measured after 1 hr by Z'-LYTE assay relative to control; settings: Insect cell

Chain of 3-phosphoinositide-dependent protein kinase 1 (Homo sapiens) (O15530 whole entry, looked up, canonical isoform): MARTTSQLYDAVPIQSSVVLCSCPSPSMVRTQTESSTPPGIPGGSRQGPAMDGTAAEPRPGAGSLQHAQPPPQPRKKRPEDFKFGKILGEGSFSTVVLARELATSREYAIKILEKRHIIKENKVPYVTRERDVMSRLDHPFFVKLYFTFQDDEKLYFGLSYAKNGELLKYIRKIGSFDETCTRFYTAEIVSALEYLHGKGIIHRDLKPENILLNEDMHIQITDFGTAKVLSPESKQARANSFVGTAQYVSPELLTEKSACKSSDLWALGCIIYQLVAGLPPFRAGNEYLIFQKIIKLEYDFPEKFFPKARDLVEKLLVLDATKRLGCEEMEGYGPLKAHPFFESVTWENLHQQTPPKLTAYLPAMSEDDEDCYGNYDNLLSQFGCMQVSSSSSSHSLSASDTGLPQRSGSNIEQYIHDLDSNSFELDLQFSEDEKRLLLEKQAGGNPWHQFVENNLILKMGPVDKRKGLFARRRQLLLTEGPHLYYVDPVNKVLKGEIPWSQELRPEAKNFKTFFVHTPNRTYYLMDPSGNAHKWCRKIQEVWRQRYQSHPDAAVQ
Chain of Insulin receptor-related protein (Homo sapiens) (P14616 27-742 limits assumed): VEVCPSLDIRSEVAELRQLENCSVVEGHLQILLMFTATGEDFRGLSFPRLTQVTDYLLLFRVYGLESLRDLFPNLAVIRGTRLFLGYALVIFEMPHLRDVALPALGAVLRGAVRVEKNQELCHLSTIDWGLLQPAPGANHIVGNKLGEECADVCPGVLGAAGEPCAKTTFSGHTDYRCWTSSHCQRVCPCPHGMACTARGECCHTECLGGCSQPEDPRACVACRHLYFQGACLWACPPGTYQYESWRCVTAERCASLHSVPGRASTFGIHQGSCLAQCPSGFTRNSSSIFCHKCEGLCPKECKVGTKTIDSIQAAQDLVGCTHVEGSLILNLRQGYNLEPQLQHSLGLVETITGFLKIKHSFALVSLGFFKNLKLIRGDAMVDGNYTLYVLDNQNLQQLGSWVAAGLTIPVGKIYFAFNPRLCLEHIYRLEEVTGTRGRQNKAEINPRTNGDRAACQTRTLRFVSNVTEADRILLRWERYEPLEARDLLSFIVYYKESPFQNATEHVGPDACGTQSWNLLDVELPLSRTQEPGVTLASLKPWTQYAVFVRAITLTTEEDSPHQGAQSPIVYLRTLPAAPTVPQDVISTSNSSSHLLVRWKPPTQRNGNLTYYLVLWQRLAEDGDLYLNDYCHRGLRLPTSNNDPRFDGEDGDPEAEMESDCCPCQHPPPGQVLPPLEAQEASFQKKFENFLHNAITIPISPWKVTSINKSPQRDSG
Chain of Insulin receptor-related protein (Homo sapiens) (P14616 747-1297 limits assumed): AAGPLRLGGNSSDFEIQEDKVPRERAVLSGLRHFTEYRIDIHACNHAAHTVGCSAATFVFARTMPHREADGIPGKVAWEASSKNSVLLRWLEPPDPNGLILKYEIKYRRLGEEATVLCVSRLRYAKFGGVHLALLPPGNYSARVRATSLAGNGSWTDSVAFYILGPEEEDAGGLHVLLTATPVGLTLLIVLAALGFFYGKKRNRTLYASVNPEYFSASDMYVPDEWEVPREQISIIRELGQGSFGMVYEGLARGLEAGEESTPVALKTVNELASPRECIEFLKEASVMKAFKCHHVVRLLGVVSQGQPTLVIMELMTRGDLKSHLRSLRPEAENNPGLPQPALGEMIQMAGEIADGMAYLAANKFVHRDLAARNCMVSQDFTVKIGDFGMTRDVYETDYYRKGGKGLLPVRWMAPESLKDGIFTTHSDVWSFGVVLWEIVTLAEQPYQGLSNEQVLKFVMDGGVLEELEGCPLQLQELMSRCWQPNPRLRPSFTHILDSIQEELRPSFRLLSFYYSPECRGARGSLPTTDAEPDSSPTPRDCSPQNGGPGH
Chain of Casein kinase I isoform delta (Homo sapiens) (P48730 whole entry, looked up, the tested form may be a part, canonical isoform): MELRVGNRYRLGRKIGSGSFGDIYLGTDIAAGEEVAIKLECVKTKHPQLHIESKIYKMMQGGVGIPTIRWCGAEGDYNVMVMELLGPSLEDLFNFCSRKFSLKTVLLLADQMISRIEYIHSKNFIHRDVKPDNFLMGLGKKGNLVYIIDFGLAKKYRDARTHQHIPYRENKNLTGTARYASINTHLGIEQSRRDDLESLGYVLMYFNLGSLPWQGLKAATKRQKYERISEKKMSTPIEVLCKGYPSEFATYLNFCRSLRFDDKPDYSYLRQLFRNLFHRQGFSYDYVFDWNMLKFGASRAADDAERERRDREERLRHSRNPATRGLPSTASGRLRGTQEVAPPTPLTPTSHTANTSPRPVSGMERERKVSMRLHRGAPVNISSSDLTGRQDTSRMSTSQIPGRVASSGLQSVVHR
Chain of Mast/stem cell growth factor receptor Kit (Homo sapiens), P10721 [T670I] (P10721 whole entry T670I, the tested form may be a part): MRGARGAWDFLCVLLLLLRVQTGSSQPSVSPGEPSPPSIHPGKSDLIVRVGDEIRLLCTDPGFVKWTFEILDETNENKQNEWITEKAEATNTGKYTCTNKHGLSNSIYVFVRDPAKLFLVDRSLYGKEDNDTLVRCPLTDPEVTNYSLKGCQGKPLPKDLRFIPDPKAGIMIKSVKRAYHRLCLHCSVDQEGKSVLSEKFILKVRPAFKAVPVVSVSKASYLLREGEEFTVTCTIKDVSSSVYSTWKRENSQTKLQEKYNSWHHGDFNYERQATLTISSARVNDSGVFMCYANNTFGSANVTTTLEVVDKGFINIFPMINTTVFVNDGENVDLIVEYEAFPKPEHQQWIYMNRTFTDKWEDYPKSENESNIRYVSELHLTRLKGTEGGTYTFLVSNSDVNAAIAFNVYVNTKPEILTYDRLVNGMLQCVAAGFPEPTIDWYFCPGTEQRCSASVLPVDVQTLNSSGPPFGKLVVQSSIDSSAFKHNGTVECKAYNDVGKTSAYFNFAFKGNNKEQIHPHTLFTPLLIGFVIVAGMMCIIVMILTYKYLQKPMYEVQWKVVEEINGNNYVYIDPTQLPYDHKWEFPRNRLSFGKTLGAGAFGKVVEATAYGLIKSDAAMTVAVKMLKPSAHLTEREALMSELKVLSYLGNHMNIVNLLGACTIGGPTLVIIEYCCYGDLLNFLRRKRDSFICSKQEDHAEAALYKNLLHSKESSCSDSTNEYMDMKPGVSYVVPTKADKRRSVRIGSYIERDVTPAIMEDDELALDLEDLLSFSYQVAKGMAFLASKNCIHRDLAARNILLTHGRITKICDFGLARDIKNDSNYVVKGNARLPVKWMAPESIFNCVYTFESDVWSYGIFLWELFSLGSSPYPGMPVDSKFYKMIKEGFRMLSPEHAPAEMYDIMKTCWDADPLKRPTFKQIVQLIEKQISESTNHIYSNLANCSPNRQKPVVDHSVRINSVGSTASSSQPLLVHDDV
Chain of Dual specificity mitogen-activated protein kinase kinase 1 (Homo sapiens) (Q02750 whole entry, the tested form may be a part): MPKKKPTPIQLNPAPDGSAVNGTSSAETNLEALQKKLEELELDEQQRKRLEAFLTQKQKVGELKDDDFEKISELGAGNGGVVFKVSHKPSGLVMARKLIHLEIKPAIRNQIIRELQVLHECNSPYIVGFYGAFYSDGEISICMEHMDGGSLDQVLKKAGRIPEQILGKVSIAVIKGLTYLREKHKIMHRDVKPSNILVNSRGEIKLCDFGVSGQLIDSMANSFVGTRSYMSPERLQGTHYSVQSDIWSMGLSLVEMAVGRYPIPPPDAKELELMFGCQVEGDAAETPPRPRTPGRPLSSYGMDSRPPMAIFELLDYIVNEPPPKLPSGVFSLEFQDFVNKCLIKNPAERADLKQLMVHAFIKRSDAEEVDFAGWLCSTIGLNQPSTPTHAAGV
Chain of Tyrosine-protein kinase ZAP-70 (Homo sapiens) (P43403 whole entry): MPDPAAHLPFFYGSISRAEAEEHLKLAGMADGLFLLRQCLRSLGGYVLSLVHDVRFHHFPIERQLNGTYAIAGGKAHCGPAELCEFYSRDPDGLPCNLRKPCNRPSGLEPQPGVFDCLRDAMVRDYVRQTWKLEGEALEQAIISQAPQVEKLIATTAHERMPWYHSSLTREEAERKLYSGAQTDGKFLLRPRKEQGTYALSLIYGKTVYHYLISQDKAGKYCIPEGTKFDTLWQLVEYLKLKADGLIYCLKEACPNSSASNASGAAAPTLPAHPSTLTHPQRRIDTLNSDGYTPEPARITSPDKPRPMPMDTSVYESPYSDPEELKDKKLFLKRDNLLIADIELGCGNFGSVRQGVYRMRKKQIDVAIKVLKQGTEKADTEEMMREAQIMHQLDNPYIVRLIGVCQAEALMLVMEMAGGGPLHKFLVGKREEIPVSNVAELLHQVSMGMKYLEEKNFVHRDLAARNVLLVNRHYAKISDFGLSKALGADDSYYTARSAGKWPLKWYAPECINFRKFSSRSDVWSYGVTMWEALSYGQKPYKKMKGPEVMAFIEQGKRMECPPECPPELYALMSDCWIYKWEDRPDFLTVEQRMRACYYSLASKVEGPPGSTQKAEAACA
Chain of Serine/threonine-protein kinase PAK 2 (Homo sapiens) (Q13177 whole entry, the tested form may be a part): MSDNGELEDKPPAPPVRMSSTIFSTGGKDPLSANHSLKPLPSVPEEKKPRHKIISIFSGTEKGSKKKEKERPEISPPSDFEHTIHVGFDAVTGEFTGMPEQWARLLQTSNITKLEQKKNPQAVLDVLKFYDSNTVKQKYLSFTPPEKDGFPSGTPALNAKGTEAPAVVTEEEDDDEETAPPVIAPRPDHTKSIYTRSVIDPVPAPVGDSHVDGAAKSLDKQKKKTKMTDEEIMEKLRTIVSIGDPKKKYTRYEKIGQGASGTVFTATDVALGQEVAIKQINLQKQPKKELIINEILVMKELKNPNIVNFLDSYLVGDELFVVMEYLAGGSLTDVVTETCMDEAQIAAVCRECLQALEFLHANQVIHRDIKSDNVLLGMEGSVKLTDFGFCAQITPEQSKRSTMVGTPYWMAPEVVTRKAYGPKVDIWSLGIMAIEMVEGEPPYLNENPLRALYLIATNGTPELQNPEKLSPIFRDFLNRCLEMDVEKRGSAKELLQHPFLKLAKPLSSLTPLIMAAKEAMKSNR

Which results are given for `CNC(=O)Nc1ccc(-c2nc(N3CC4CCC(C3)O4)c3cnn(C4CCC5(CC4)OCCO5)c3n2)cc1`?
Activity (MDA-MB-361 [1]): Active; Activity (HEK293): 0.58; inhibition [2]: 15%; inhibition [3]: 7%; inhibition [4]: 6%; IC50 (MDA-MB-361 [5]): 12 nM; inhibition [6]: 6%; inhibition [7]: 4%; inhibition [8]: 3%; inhibition [9]: 2%; inhibition [10]: 2%; Activity (HCT-116 [11]): Active; IC50 (HCT-116 [12]): 380 nM; Activity (HT-29): inactive; Activity (HCT-116 [13]): inactive; IC50 (786-0): 120 nM; inhibition (mTORC2 (Homo sapiens)): Active; inhibition [14]: 7%; inhibition [15]: 5%; IC50 (U-87 MG): 65 nM; inhibition [16]: 3%; inhibition [17]: 7%; Activity (MDA-MB-361 [18]): Active; inhibition [19]: 3%; Activity (MDA-MB-361 [20]): inactive; inhibition [21]: 8%

— ChEMBL document CHEMBL5696439 (Cancer Res, 2010)
